Results published in patent US20260114449A1, “CONCENTRATED ANTIMICROBIAL SOLUTIONS CONTAINING SPARINGLY SOLUBLE ANTIMICROBIAL AGENTS” (Virox Technologies Inc., priority 2023, published 2026).

Assay: Solubility of salicylic acid in concentrated solution
Format: physicochemical
Method: Solutions 18-22 consisting of a solvent (Tamisolve NxG), a sparingly soluble antimicrobial agent (salicylic acid), and an antimicrobial surfactant (Biosoft S-101 LS) were prepared and are summarized in Table 3.
Solution 42 was prepared and visually inspected at the time of preparation, after 24 hours of storage at room temperature, and after one cycle of freezing and thawing.

amount of salicylic acid effectively solubilized (Solution 42: Tamisolve NxG 35 wt. %, Biosoft S-101 LS 45 wt. %): 20 wt. % | maximum amount of salicylic acid that was solubilized (Table 3 solutions: Tamisolve NxG 23.54 wt. % plus Biosoft S-101 LS): 13 wt. % | solubility of salicylic acid relative to its solubility in water (in Solution 42): about 83 times
SMILES: O=C(O)c1ccccc1O [salicylic acid, Salicylic acid]
